Data on eight compounds can be found in ChEMBL document CHEMBL2407075, “Sulphonamido-quinoxalines: search for anticancer agent” (Eur J Med Chem, 2013).

The nature of the series: Oral bioavailability in human. The conditions noted are these: in silico prediction. The format is ADME, organism-based.
As for `CC(=O)NS(=O)(=O)c1ccc2nc(-c3ccccc3)c(-c3ccccc3)nc2c1`, the bioavailability is 94.7%.
For `O=S(=O)(Nc1ccc2ccccc2c1)c1ccc2nc(-c3ccccc3)c(-c3ccccc3)nc2c1`, the bioavailability is 100%.
As for `O=S(=O)(Nc1ccc(O)cc1)c1ccc2nc(-c3ccccc3)c(-c3ccccc3)nc2c1`, the figure is 93.9%; as for `O=[N+]([O-])c1ccc(NS(=O)(=O)c2ccc3nc(-c4ccccc4)c(-c4ccccc4)nc3c2)cc1`, 87.6%; as for `O=[N+]([O-])c1cccc(NS(=O)(=O)c2ccc3nc(-c4ccccc4)c(-c4ccccc4)nc3c2)c1`, 85.6%.
`O=C(O)c1ccccc1NS(=O)(=O)c1ccc2nc(-c3ccccc3)c(-c3ccccc3)nc2c1`: the bioavailability was 83.6%.
To `Cc1ccnc(NS(=O)(=O)c2ccc3nc(-c4ccccc4)c(-c4ccccc4)nc3c2)c1` belongs 100%.
For `CC(=O)c1cccc(NS(=O)(=O)c2ccc3nc(-c4ccccc4)c(-c4ccccc4)nc3c2)c1`, the bioavailability is 96.9%.
